Reference: patent US20260265252A1, “SOLID STATE FORMS OF IMIPRIDONE DERIVATIVE” (CHIMERIX, INC., priority 2024, published 2026)
Counter-ions that a name gives are not always drawn.

Experiment: ICH-compliant stability study of ONC206-HCl Drug Substance (appearance, XRPD form, HPLC assay, purity/impurities, water content, particle size, microbial)
Type: physicochemical
Parameters: key to Each unidentified impurity (NMT 0.5% area) / Appearance (White to off-white solid) / Polymorphic form (XRPD) (Consistent with form 2 reference diffractogram): C = Conforms; A = Absence
Experimental: The purpose of the ICH-compliant stability study was to evaluate the performance to specifications of ONC206-HCl Drug Substance under specified container closure configuration, storage conditions, and intervals.
The study was performed according to ICH Q1A(R2) and QlE Guidance documents. […]
The Container Closure Systems were: • Primary container: LDPE bag, 4×8 inches (Source: Nexus—64378); bag closure PE 180 nm (Source: Entourage), • Secondary container: LDPE bag, 4×8 inches (Source: Nexus—64378); bag closure PE 180 nm (Source: Entourage), • Tertiary container: Heat-sealed foil bag, 15×30 (Source: SERCALIA S.L.—10234), and • Outer container: Plastic drum, 6 L (Source: Curtec, HDPE ref 54021) or Plastic drum, 3.6 L (Source: Curtec).

[1] = 25 ± 2° C./60% ± 5% RH long term storage conditions, 0 months
[2] = 25 ± 2° C./60% ± 5% RH long term storage conditions, 3 months
[3] = 25 ± 2° C./60% ± 5% RH long term storage conditions, 6 months
[4] = 25 ± 2° C./60% ± 5% RH long term storage conditions, 9 months
[5] = 25 ± 2° C./60% ± 5% RH long term storage conditions, 12 months
[6] = 30 ± 2° C./65% ± 5% RH intermediate conditions, 0 months
[7] = 30 ± 2° C./65% ± 5% RH intermediate conditions, 6 months
[8] = 30 ± 2° C./65% ± 5% RH intermediate conditions, 9 months

O=C1C2=C(CCN(Cc3ccccc3)C2)N2CCN=C2N1Cc1ccc(F)cc1F [ONC206-HCl, 7-benzyl-4-(2,4-difluorobenzyl)-2,4,6,7,8,9-hexahydroimidazo[1,2-a]pyrido[3,4-e]pyrimidin-5(1H)-one]
period over which stability is confirmed (2-8° C. (Table 39)): 6 months | Appearance (White to off-white solid) (2-8° C., 0 months): C | Assay by HPLC-UV (Anhydrous & Solvent Free basis) 97.0-103.0% w/w (2-8° C., 0 months): 101.6 % w/w | Each unidentified impurity (NMT 0.5% area) (2-8° C., 0 months): C | Particle Size (Malvern) D10 (Report result μm) (2-8° C., 0 months): 28.2 μm | Particle Size (Malvern) D50 (Report result μm) (2-8° C., 0 months): 91.4 μm | Particle Size (Malvern) D90 (Report result μm) (2-8° C., 0 months): 201.3 μm | Polymorphic form (XRPD) (Consistent with form 2 reference diffractogram) (2-8° C., 0 months): C | Purity by HPLC (NLT 98.0% area) (2-8° C., 0 months): 100.0 % area | Total impurities (NMT 2.0% area) (2-8° C., 0 months): 0.00 % area | Water Content by Kf (Report result % w/w) (2-8° C., 0 months): 9.3 % w/w | Appearance (White to off-white solid) (2-8° C., 1 months): C | Assay by HPLC-UV (Anhydrous & Solvent Free basis) 97.0-103.0% w/w (2-8° C., 1 months): 101.3 % w/w | Each unidentified impurity (NMT 0.5% area) (2-8° C., 1 months): C | Particle Size (Malvern) D10 (Report result μm) (2-8° C., 1 months): 27.8 μm | Particle Size (Malvern) D50 (Report result μm) (2-8° C., 1 months): 89.8 μm | Particle Size (Malvern) D90 (Report result μm) (2-8° C., 1 months): 196.0 μm | Polymorphic form (XRPD) (Consistent with form 2 reference diffractogram) (2-8° C., 1 months): C | Purity by HPLC (NLT 98.0% area) (2-8° C., 1 months): 100.0 % area | Total impurities (NMT 2.0% area) (2-8° C., 1 months): 0.00 % area | Water Content by Kf (Report result % w/w) (2-8° C., 1 months): 9.2 % w/w | Appearance (White to off-white solid) (2-8° C., 2 months): C | Assay by HPLC-UV (Anhydrous & Solvent Free basis) 97.0-103.0% w/w (2-8° C., 2 months): 100.3 % w/w | Each unidentified impurity (NMT 0.5% area) (2-8° C., 2 months): C | Particle Size (Malvern) D10 (Report result μm) (2-8° C., 2 months): 29.4 μm | Particle Size (Malvern) D50 (Report result μm) (2-8° C., 2 months): 91.6 μm | Particle Size (Malvern) D90 (Report result μm) (2-8° C., 2 months): 189.0 μm | Polymorphic form (XRPD) (Consistent with form 2 reference diffractogram) (2-8° C., 2 months): C | Purity by HPLC (NLT 98.0% area) (2-8° C., 2 months): 100.0 % area | Total impurities (NMT 2.0% area) (2-8° C., 2 months): 0.00 % area | Water Content by Kf (Report result % w/w) (2-8° C., 2 months): 9.4 % w/w | Appearance (White to off-white solid) (2-8° C., 3 months): C | Assay by HPLC-UV (Anhydrous & Solvent Free basis) 97.0-103.0% w/w (2-8° C., 3 months): 100.3 % w/w | Each unidentified impurity (NMT 0.5% area) (2-8° C., 3 months): C | Particle Size (Malvern) D10 (Report result μm) (2-8° C., 3 months): 28.3 μm | Particle Size (Malvern) D50 (Report result μm) (2-8° C., 3 months): 90.9 μm | Particle Size (Malvern) D90 (Report result μm) (2-8° C., 3 months): 197.0 μm | Polymorphic form (XRPD) (Consistent with form 2 reference diffractogram) (2-8° C., 3 months): C | Purity by HPLC (NLT 98.0% area) (2-8° C., 3 months): 100.0 % area | Total impurities (NMT 2.0% area) (2-8° C., 3 months): 0.00 % area | Water Content by Kf (Report result % w/w) (2-8° C., 3 months): 9.5 % w/w | Appearance (White to off-white solid) (2-8° C., 6 months): C | Assay by HPLC-UV (Anhydrous & Solvent Free basis) 97.0-103.0% w/w (2-8° C., 6 months): 99.6 % w/w | Each unidentified impurity (NMT 0.5% area) (2-8° C., 6 months): C | Particle Size (Malvern) D10 (Report result μm) (2-8° C., 6 months): 28.3 μm | Particle Size (Malvern) D50 (Report result μm) (2-8° C., 6 months): 91.1 μm | Particle Size (Malvern) D90 (Report result μm) (2-8° C., 6 months): 199.0 μm | Polymorphic form (XRPD) (Consistent with form 2 reference diffractogram) (2-8° C., 6 months): C | Purity by HPLC (NLT 98.0% area) (2-8° C., 6 months): 100.0 % area | Total impurities (NMT 2.0% area) (2-8° C., 6 months): 0.00 % area | Water Content by Kf (Report result % w/w) (2-8° C., 6 months): 9.3 % w/w | period over which stability is confirmed (25° C. (Table 42), 60% RH long term storage conditions): 12 months | Appearance (White to off-white solid) [1]: C | Assay by HPLC-UV (Anhydrous & Solvent Free basis) 97.0-103.0% w/w [1]: 101.6 % w/w | Each unidentified impurity (NMT 0.5% area) [1]: C | Particle Size (Malvern) D10 (Report result μm) [1]: 28.2 μm | Particle Size (Malvern) D50 (Report result μm) [1]: 91.4 μm | Particle Size (Malvern) D90 (Report result μm) [1]: 201.3 μm | Polymorphic form (XRPD) (Consistent with form 2 reference diffractogram) [1]: C | Purity by HPLC (NLT 98.0% area) [1]: 100.0 % area | Total impurities (NMT 2.0% area) [1]: 0.00 % area | Water Content by Kf (Report result % w/w) [1]: 9.3 % w/w | Appearance (White to off-white solid) [2]: C | Assay by HPLC-UV (Anhydrous & Solvent Free basis) 97.0-103.0% w/w [2]: 99.1 % w/w | Each unidentified impurity (NMT 0.5% area) [2]: C | Particle Size (Malvern) D10 (Report result μm) [2]: 28.3 μm | Particle Size (Malvern) D50 (Report result μm) [2]: 91.4 μm | Particle Size (Malvern) D90 (Report result μm) [2]: 199.0 μm | Polymorphic form (XRPD) (Consistent with form 2 reference diffractogram) [2]: C | Purity by HPLC (NLT 98.0% area) [2]: 100.0 % area | Total impurities (NMT 2.0% area) [2]: 0.00 % area | Water Content by Kf (Report result % w/w) [2]: 9.5 % w/w | Appearance (White to off-white solid) [3]: C | Assay by HPLC-UV (Anhydrous & Solvent Free basis) 97.0-103.0% w/w [3]: 100.2 % w/w | Each unidentified impurity (NMT 0.5% area) [3]: C | Particle Size (Malvern) D10 (Report result μm) [3]: 26.8 μm | Particle Size (Malvern) D50 (Report result μm) [3]: 88.5 μm | Particle Size (Malvern) D90 (Report result μm) [3]: 196.0 μm | Polymorphic form (XRPD) (Consistent with form 2 reference diffractogram) [3]: C | Purity by HPLC (NLT 98.0% area) [3]: 100.0 % area | Total impurities (NMT 2.0% area) [3]: 0.00 % area | Water Content by Kf (Report result % w/w) [3]: 9.3 % w/w | Appearance (White to off-white solid) [4]: C | Assay by HPLC-UV (Anhydrous & Solvent Free basis) 97.0-103.0% w/w [4]: 100.4 % w/w | Each unidentified impurity (NMT 0.5% area) [4]: C | Particle Size (Malvern) D10 (Report result μm) [4]: 30.2 μm | Particle Size (Malvern) D50 (Report result μm) [4]: 92.2 μm | Particle Size (Malvern) D90 (Report result μm) [4]: 192.0 μm | Polymorphic form (XRPD) (Consistent with form 2 reference diffractogram) [4]: C | Purity by HPLC (NLT 98.0% area) [4]: 100.0 % area | Total impurities (NMT 2.0% area) [4]: 0.00 % area | Water Content by Kf (Report result % w/w) [4]: 9.3 % w/w | Appearance (White to off-white solid) [5]: C | Assay by HPLC-UV (Anhydrous & Solvent Free basis) 97.0-103.0% w/w [5]: 99.6 % w/w | Each unidentified impurity (NMT 0.5% area) [5]: C | Particle Size (Malvern) D10 (Report result μm) [5]: 28.1 μm | Particle Size (Malvern) D50 (Report result μm) [5]: 91.3 μm | Particle Size (Malvern) D90 (Report result μm) [5]: 203.0 μm | Polymorphic form (XRPD) (Consistent with form 2 reference diffractogram) [5]: C | Purity by HPLC (NLT 98.0% area) [5]: 100.0 % area | Total impurities (NMT 2.0% area) [5]: 0.00 % area | Water Content by Kf (Report result % w/w) [5]: 9.3 % w/w | period over which stability is confirmed (30° C. (Table 43), 65% RH intermediate conditions): 12 months | Appearance (White to off-white solid) [6]: C | Assay by HPLC-UV (Anhydrous & Solvent Free basis) 97.0-103.0% w/w [6]: 101.6 % w/w | Each unidentified impurity (NMT 0.5% area) [6]: C | Particle Size (Malvern) D10 (Report result μm) [6]: 28.2 μm | Particle Size (Malvern) D50 (Report result μm) [6]: 91.4 μm | Particle Size (Malvern) D90 (Report result μm) [6]: 201.3 μm | Polymorphic form (XRPD) (Consistent with form 2 reference diffractogram) [6]: C | Purity by HPLC (NLT 98.0% area) [6]: 100.0 % area | Total impurities (NMT 2.0% area) [6]: 0.00 % area | Water Content by Kf (Report result % w/w) [6]: 9.3 % w/w | Appearance (White to off-white solid) [7]: C | Assay by HPLC-UV (Anhydrous & Solvent Free basis) 97.0-103.0% w/w [7]: 99.2 % w/w | Each unidentified impurity (NMT 0.5% area) [7]: C | Particle Size (Malvern) D10 (Report result μm) [7]: 29.3 μm | Particle Size (Malvern) D50 (Report result μm) [7]: 92.1 μm | Particle Size (Malvern) D90 (Report result μm) [7]: 199.0 μm | Polymorphic form (XRPD) (Consistent with form 2 reference diffractogram) [7]: C | Purity by HPLC (NLT 98.0% area) [7]: 100.0 % area | Total impurities (NMT 2.0% area) [7]: 0.00 % area | Water Content by Kf (Report result % w/w) [7]: 9.3 % w/w | Appearance (White to off-white solid) [8]: C | Assay by HPLC-UV (Anhydrous & Solvent Free basis) 97.0-103.0% w/w [8]: 100.2 % w/w | Each unidentified impurity (NMT 0.5% area) [8]: C
